Assay [1] addresses human CB1 receptor (hCB1) (Homo sapiens, UniProt P21554). The assay can be described thus: cell-based. It counts as cell-based. Particulars: for +/− HCB1: agonist or inverse agonist at hCB1. The procedure, abridged:
(§1)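 First, cells in IBMX-containing HEPES-buffered HBSS are raised to elevated cAMP with 2-8 μM NKH-477 for 30 min. Data are normalised to the forskolin and forskolin + 1 μM CP55,940 controls.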

The target in a further assay is T1, rat CB2 receptor (rCB2) (Rattus norvegicus, UniProt Q9QZN9).
T1 sequence (Q9QZN9 1-360): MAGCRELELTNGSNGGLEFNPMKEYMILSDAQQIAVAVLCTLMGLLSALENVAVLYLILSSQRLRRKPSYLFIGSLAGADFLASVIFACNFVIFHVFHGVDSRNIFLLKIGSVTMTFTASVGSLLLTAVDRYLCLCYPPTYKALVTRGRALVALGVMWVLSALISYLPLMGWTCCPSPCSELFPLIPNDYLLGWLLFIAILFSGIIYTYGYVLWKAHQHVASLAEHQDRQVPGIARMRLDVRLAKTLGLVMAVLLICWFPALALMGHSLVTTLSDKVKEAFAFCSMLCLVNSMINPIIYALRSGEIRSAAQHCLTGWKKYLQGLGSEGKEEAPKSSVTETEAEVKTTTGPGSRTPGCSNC
The assay can be described thus: cell-based. It counts as cell-based. The settings on record: for +/− RCB2: agonist or inverse agonist at rCB2. In outline:
as §1

[2] abbreviates: groups >100 nM-10 μM and >10 μM, cAMP, CHO-K1 hCB1, read-out: EC50 HCB1.

As usually defined, the EC50 is the concentration that produces a half-maximal response.

Read-outs that look alike come from different tables or passages of the source.

Sequence of human CB1 receptor (hCB1) (P21554 whole entry): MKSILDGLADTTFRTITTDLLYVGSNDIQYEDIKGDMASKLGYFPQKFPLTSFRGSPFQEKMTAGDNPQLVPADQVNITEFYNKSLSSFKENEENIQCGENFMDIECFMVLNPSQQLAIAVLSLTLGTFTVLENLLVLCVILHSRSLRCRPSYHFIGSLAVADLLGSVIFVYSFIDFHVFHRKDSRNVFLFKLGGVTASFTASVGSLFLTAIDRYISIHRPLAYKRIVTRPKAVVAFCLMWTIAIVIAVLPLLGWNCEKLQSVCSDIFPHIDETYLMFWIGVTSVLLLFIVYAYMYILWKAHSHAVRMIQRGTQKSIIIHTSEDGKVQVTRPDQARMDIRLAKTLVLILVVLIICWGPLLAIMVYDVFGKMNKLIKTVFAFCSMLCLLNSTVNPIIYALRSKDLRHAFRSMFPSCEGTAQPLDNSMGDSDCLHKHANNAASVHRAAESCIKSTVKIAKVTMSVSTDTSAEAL

`CC(C)CN1CCn2c(-c3ccccc3)nc(C(=O)NN3CCCCC3)c2C1` [Compound 155, 7-isobutyl-3-phenyl-N-(piperidin-1-yl)-5,6,7,8-tetrahydroimidazo[1,5-a]pyrazine-1-carboxamide] showed a concentration giving a half-maximal response (EC50) in assay [1] of over 10000 nM. For the same compound, the “+/− RCB2” value at rat CB2 receptor (rCB2) is reported as “−”.
As for `CNC(=O)[C@H](CC(C)C)NC(=O)c1nc(-c2cc(Cl)c(F)cc2F)n2c1CN(C)CCC2` [Compound 539, (S)-3-(5-chloro-2,4-difluorophenyl)-8-methyl-N-(4-methyl-1-(methylamino)-1-oxopentan-2-yl)-6,7,8,9-tetrahydro-5H-imidazo[1,5-a][1,4]diazepine-1-carboxamide], the “+/− HCB1” value in assay [1] is given as “+”. The “+/− RCB2” value on rat CB2 receptor (rCB2) is given as “+”.
In turn, `CNC(=O)[C@@H](NC(=O)c1nc(CCC2CC2)n2c1CN(C)CCC2)C(C)(C)C` [Compound 490, (S)-3-(2-cyclopropylethyl)-N-(3,3-dimethyl-1-(methylamino)-1-oxobutan-2-yl)-8-methyl-6,7,8,9-tetrahydro-5H-imidazo[1,5-a][1,4]diazepine-1-carboxamide] gave an EC50 in assay [1] of over 10000 nM. Further, at rat CB2 receptor (rCB2), the “+/− RCB2” value is reported as “+”.
The like results for `CNC(=O)[C@@H](NC(=O)c1nc(C(O)C2CC2)n2c1CN(C)CC2)C(C)(C)C` (stereo partly drawn) [Compound 296, 3-(cyclopropyl(hydroxy)methyl)-N-((S)-3,3-dimethyl-1-(methylamino)-1-oxobutan-2-yl)-7-methyl-5,6,7,8-tetrahydroimidazo[1,5-a]pyrazine-1-carboxamide] were, in that order, over 10000 nM and “+”.
The like results for `CCCN1CCn2c(-c3ccccc3)nc(C(=O)Nc3ccccc3)c2C1` [Compound 154, N,3-diphenyl-7-propyl-5,6,7,8-tetrahydroimidazo[1,5-a]pyrazine-1-carboxamide] were, in that order, over 10000 nM and “−”.
Consider `CNC(=O)[C@@H](NC(=O)c1nc(-c2ccccc2)n2c1CN(C(C)C)CCC2)C(C)(C)C` [Compound 319, (S)-N-(3,3-dimethyl-1-(methylamino)-1-oxobutan-2-yl)-8-isopropyl-3-phenyl-6,7,8,9-tetrahydro-5H-imidazo[1,5-a][1,4]diazepine-1-carboxamide], for which the EC50 (in assay [1]; on rat CB2 receptor (rCB2)) was over 10000 nM throughout.
For `CNC(=O)[C@@H](NC(=O)c1nc(C(O)c2ccccc2)n2c1CN(C)CC2)C(C)(C)C` (stereo partly drawn) [Compound 295, N-((S)-3,3-dimethyl-1-(methylamino)-1-oxobutan-2-yl)-3-(hydroxy(phenyl)methyl)-7-methyl-5,6,7,8-tetrahydroimidazo[1,5-a]pyrazine-1-carboxamide], the 50% effective concentration (EC50) (in assay [1]; at rat CB2 receptor (rCB2)) was over 10000 nM in each case.
On to `CC(C)CN1CCn2c(-c3ccccc3)nc(C(=O)N[C@@H](C)c3ccccc3)c2C1` [Compound 145, (S)-7-isobutyl-3-phenyl-N-(1-phenylethyl)-5,6,7,8-tetrahydroimidazo[1,5-a]pyrazine-1-carboxamide], for which the EC50 in assay [1] was over 10000 nM. Further, at rat CB2 receptor (rCB2), the “+/− RCB2” value is listed as “−”.
Take `C[C@@H](NC(=O)c1nc(-c2ccccc2)n2c1CN(C)CC2)C(C)(C)C` [Compound 50, (R)-N-(3,3-dimethylbutan-2-yl)-7-methyl-3-phenyl-5,6,7,8-tetrahydroimidazo[1,5-a]pyrazine-1-carboxamide]: the EC50 in assay [1] (setting [2]) was over 10000 nM; at rat CB2 receptor (rCB2) (groups >100 nM-10 μM and >10 μM, cAMP, CHO-K1 rCB2, read-out: EC50 RCB2), over 10000 nM.
With `CN1CCCn2c(-c3ccc(Cl)c(F)c3)nc(C(=O)N[C@H](C(N)=O)C(C)(C)C)c2C1` [Compound 577, (S)-N-(1-amino-3,3-dimethyl-1-oxobutan-2-yl)-3-(4-chloro-3-fluorophenyl)-8-methyl-6,7,8,9-tetrahydro-5H-imidazo[1,5-a][1,4]diazepine-1-carboxamide], the “+/− HCB1” value in assay [1] was “+”. The “+/− RCB2” value at rat CB2 receptor (rCB2) is “+”.
With `COC(=O)N1CCn2c(-c3ccc(Cl)cc3)nc(C(=O)NCCC(C)C)c2C1` [Compound 183, methyl 3-(4-chlorophenyl)-1-(isopentylcarbamoyl)-5,6-dihydroimidazo[1,5-a]pyrazine-7(8H)-carboxylate], in assay [1], the EC50 was over 10000 nM. The “+/− RCB2” value at rat CB2 receptor (rCB2) is listed as “−”.
For the compound `CNC(=O)[C@@H](NC(=O)c1nc(C2=CCN(C(=O)OC(C)(C)C)CC2)n2c1CN(C)CCC2)C(C)(C)C` [Compound 388, (S)-tert-butyl 4-(1-(3,3-dimethyl-1-(methylamino)-1-oxobutan-2-ylcarbamoyl)-8-methyl-6,7,8,9-tetrahydro-5H-imidazo[1,5-a][1,4]diazepin-3-yl)-5,6-dihydropyridine-1(2H)-carboxylate], the EC50 (in assay [1]; on rat CB2 receptor (rCB2)) was over 10000 nM in each case.
On to `COC(=O)[C@@H](NC(=O)c1nc(-c2ccc(C)cc2F)n2c1CN(C)CCC2)C(C)(C)C` [Compound 469, (S)-methyl 2-(3-(2-fluoro-4-methylphenyl)-8-methyl-6,7,8,9-tetrahydro-5H-imidazo[1,5-a][1,4]diazepine-1-carboxamido)-3,3-dimethylbutanoate], for which the EC50 (in assay [1]; at rat CB2 receptor (rCB2)) was over 10000 nM in each case.
`CNC(=O)[C@@H](NC(=O)c1nc(-c2ccccc2)n2c1CN(Cc1cnn(C)c1)CC2)C(C)(C)C` [Compound 66, (S)-N-(3,3-dimethyl-1-(methylamino)-1-oxobutan-2-yl)-7-((1-methyl-1H-pyrazol-4-yl)methyl)-3-phenyl-5,6,7,8-tetrahydroimidazo[1,5-a]pyrazine-1-carboxamide]: in assay [1], the EC50 is over 10000 nM. Moreover, the “+/− RCB2” value at rat CB2 receptor (rCB2) was “+”.
Regarding `CNC(=O)c1cccc(NC(=O)c2nc(-c3ccc(Cl)cc3F)n3c2CN(C)CC3)c1` [Compound 216, 3-(4-chloro-2-fluorophenyl)-7-methyl-N-(3-(methylcarbamoyl)phenyl)-5,6,7,8-tetrahydroimidazo[1,5-a]pyrazine-1-carboxamide], in assay [1] (setting [2]), the EC50 was over 10000 nM. Besides, the “+/− RCB2” value on rat CB2 receptor (rCB2) was “−”.
Taken in the same sequence, the figures for `CC(C)(C)OC(=O)N1CCCn2c(-c3ccccc3)nc(C(=O)N[C@H](C(=O)O)C(C)(C)C)c2C1` [Compound 515, (S)-2-(8-(tert-butoxycarbonyl)-3-phenyl-6,7,8,9-tetrahydro-5H-imidazo[1,5-a][1,4]diazepine-1-carboxamido)-3,3-dimethylbutanoic acid] were over 10000 nM and “−”.
With `CNC(=O)[C@@H](NC(=O)c1nc(-c2ccccc2C#N)n2c1CN(C)CC2)C(C)(C)C` [Compound 259, (S)-3-(2-cyanophenyl)-N-(3,3-dimethyl-1-(methylamino)-1-oxobutan-2-yl)-7-methyl-5,6,7,8-tetrahydroimidazo[1,5-a]pyrazine-1-carboxamide], the half-maximal effective concentration (EC50) (in assay [1]; on rat CB2 receptor (rCB2)) was over 10000 nM throughout.
As for `CNC(=O)[C@@H](NC(=O)c1nc(-c2cccc(C(F)(F)F)c2F)n2c1CN(C)CCC2)C(C)(C)C` [Compound 364, (S)-N-(3,3-dimethyl-1-(methylamino)-1-oxobutan-2-yl)-3-(2-fluoro-3-(trifluoromethyl)phenyl)-8-methyl-6,7,8,9-tetrahydro-5H-imidazo[1,5-a][1,4]diazepine-1-carboxamide], in assay [1], the EC50 was over 10000 nM. For the same compound, the “+/− RCB2” value at rat CB2 receptor (rCB2) is reported as “−”.
For `CCC/C=C/c1nc(C(=O)N[C@H](C(=O)NC)C(C)(C)C)c2n1CCN(C)C2` [Compound 268, (S,E)-N-(3,3-dimethyl-1-(methylamino)-1-oxobutan-2-yl)-7-methyl-3-(pent-1-enyl)-5,6,7,8-tetrahydroimidazo[1,5-a]pyrazine-1-carboxamide], in assay [1], the “+/− HCB1” value is listed as “+”. The EC50 on rat CB2 receptor (rCB2) is over 10000 nM.
Consider `CNC(=O)[C@H](C)NC(=O)c1nc(-c2ccccc2)n2c1CN(Cc1cncnc1)CC2` [Compound 77, (S)-N-(1-(methylamino)-1-oxopropan-2-yl)-3-phenyl-7-(pyrimidin-5-ylmethyl)-5,6,7,8-tetrahydroimidazo[1,5-a]pyrazine-1-carboxamide], for which the EC50 (in assay [1]; on rat CB2 receptor (rCB2)) was over 10000 nM in each case.
For `CC(C)CCNC(=O)c1nc(-c2ccc(Cl)cc2)n2c1CNCC2` [Compound 42, 3-(4-chlorophenyl)-N-isopentyl-5,6,7,8-tetrahydroimidazo[1,5-a]pyrazine-1-carboxamide], the EC50 in assay [1] (setting [2]) is over 10000 nM. Further, the “+/− RCB2” value at rat CB2 receptor (rCB2) was “−”.
Regarding `CNC(=O)[C@@H](NC(=O)c1nc(C2=CCOCC2)n2c1CN(C)CCC2)C(C)(C)C` [Compound 594, (S)-3-(3,6-dihydro-2H-pyran-4-yl)-N-(3,3-dimethyl-1-(methylamino)-1-oxobutan-2-yl)-8-methyl-6,7,8,9-tetrahydro-5H-imidazo[1,5-a][1,4]diazepine-1-carboxamide], the “+/− HCB1” value in assay [1] is given as “+”. In addition, at rat CB2 receptor (rCB2), the “+/− RCB2” value is recorded as “+”.
On to `CNC(=O)[C@@H](NC(=O)c1nc(-c2cccc3cccnc23)n2c1CN(C)CC2)C(C)(C)C` [Compound 242, (S)-N-(3,3-dimethyl-1-(methylamino)-1-oxobutan-2-yl)-7-methyl-3-(quinolin-8-yl)-5,6,7,8-tetrahydroimidazo[1,5-a]pyrazine-1-carboxamide], for which, in assay [1], the EC50 was over 10000 nM. At rat CB2 receptor (rCB2), the “+/− RCB2” value is reported as “−”.

The values are drawn from patent US7517874B2 (priority 2007, dated 2009).
